The supplement of paper PMC7017272
± gives the standard deviation of the averaged measurements.

How the values were obtained:
UT-SCC-24A [1] = assay: maximal % inhibition of viability relative to DMSO; higher = stronger effect; conditions: treatment time: 3 days
Method: (§1)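 HNSCC cell lines (500 cells/well, 384-well) were cultured on plastic, on top of (2D) or embedded (3D) in Matrigel or human leiomyoma matrix Myogel (500 ug/mL; Myogel 3D mixed with rat collagen I). Cells were treated for 3 days with 5 ten-fold concentrations of each drug, and viability was read by CellTiter-Glo. Viability was normalised to DMSO (0% inhibition) and 100 uM benzethonium chloride (100% inhibition) controls and fitted with the FIMM DSRT pipeline to give IC50 (nM), maximal % inhibition and the drug sensitivity score (DSS). Suffixes _1/_2/_3 on drug names are replicates.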

UT-SCC-106A = assay: drug sensitivity score (DSS); higher = more sensitive; extreme values may be limits of the assay; conditions: treatment time: 3 days
How it was run: (§2)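 Viability of HPV-negative HNSCC cell lines was measured by CellTiter-Glo 2.0 luminescence. Cells were seeded at 500 cells/well in 384-well plates on plastic, on Matrigel- or Myogel-coated wells (500 µg/mL), or embedded in Matrigel or Myogel plus rat collagen I, then given compounds at five 10-fold concentrations for 3 days, with signals normalised to vehicle (0.1% DMSO) and cell-killing control wells. Fitting of percent-inhibition dose–response curves in the FIMM pipeline yielded IC50, maximal inhibition and drug sensitivity score.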

UT-SCC-14 = assay: as above; conditions: treatment time: 3 days
How it was run: as §2

UT-SCC-24B = assay: as above; conditions: treatment time: 3 days
How it was run: as §2

UT-SCC-28 [2] = assay: as above; conditions: treatment time: 3 days
How it was run: as §2

UT-SCC-40 = assay: as above; conditions: treatment time: 3 days
How it was run: as §2

UT-SCC-42A [3] = assay: as above; conditions: treatment time: 3 days
How it was run: as §2

UT-SCC-42B = assay: as above; conditions: treatment time: 3 days
How it was run: as §2

UT-SCC-44 = assay: as above; conditions: treatment time: 3 days
How it was run: as §2

UT-SCC-73 = assay: as above; conditions: treatment time: 3 days
How it was run: as §2

UT-SCC-81 [4] = assay: as above; conditions: treatment time: 3 days
How it was run: as §2

UT-SCC-8 = assay: as above; conditions: treatment time: 3 days
How it was run: as §2

UT-SCC-28 [5] = assay: relative IC50 (midpoint of the fitted curve; maximal inhibition may be below 50%); higher = less potent; conditions: culture condition: embedded in Myogel + collagen I; treatment time: 3 days
How it was run: as §2

UT-SCC-42A [6] = assay: as above; conditions: treatment time: 3 days
How it was run: as §2

UT-SCC-81 [7] = assay: as above; conditions: treatment time: 3 days
How it was run: as §2

UT-SCC-24A [8] = assay: relative IC50 (midpoint of the fitted curve; maximal inhibition may be below 50%); higher = less potent; conditions: treatment time: 3 days
Method: as §1

[9] = culture condition: embedded in Matrigel
[10] = culture condition: embedded in Myogel + collagen I
[11] = culture condition: on top of Matrigel
[12] = culture condition: on top of Myogel
[13] = culture condition: plastic 2D (no matrix)

relative IC50 (UT-SCC-28 [5]): 6.89 nM
relative IC50 (UT-SCC-42A [6]; [10]): 5.97 nM
relative IC50 (UT-SCC-42A [6]; [11]): 15 nM
relative IC50 (UT-SCC-42A [6]; [12]): 10.5 nM
relative IC50 (UT-SCC-81 [7]; [10]): 2.53 nM
relative IC50 (UT-SCC-81 [7]; [11]): 6.53 nM
relative IC50 (UT-SCC-81 [7]; [12]): 6.12 nM
relative IC50 (UT-SCC-81 [7]; [13]): 2.97 nM
relative IC50 (UT-SCC-24A [8]; [10]): 0.761 nM
relative IC50 (UT-SCC-24A [8]; [12]): 10.4 nM
SMILES: CO[C@H]1C[C@@H]2CC[C@@H](C)[C@@](O)(O2)C(=O)C(=O)N2CCCC[C@H]2C(=O)O[C@H]([C@H](C)C[C@@H]2CC[C@@H](OCCO)[C@H](OC)C2)CC(=O)[C@H](C)/C=C(\C)[C@@H](O)[C@@H](OC)C(=O)[C@H](C)C[C@H](C)/C=C/C=C/C=C/1C [Everolimus]
maximal % inhibition of viability (UT-SCC-24A [1]; [9]): 51.3 ± 40%
maximal % inhibition of viability (UT-SCC-24A [1]; [10]): 33.2 ± 13%
maximal % inhibition of viability (UT-SCC-24A [1]; [11]): 31.5 ± 13%
maximal % inhibition of viability (UT-SCC-24A [1]; [12]): 26.8 ± 1.4%
maximal % inhibition of viability (UT-SCC-24A [1]; [13]): 28.2 ± 2.9%
drug sensitivity score (UT-SCC-106A; [9]): 1.27 ± 0.31 DSS
drug sensitivity score (UT-SCC-106A; [10]): 2.77 ± 0.81 DSS
drug sensitivity score (UT-SCC-106A; [11]): 1.53 ± 1.4 DSS
drug sensitivity score (UT-SCC-106A; [12]): 1.33 ± 0.6 DSS
drug sensitivity score (UT-SCC-106A; [13]): 7.3 ± 6 DSS
drug sensitivity score (UT-SCC-14; [9]): 8.37 ± 3.1 DSS
drug sensitivity score (UT-SCC-14; [10]): 10.2 ± 3.4 DSS
drug sensitivity score (UT-SCC-14; [11]): 5.67 ± 2.2 DSS
drug sensitivity score (UT-SCC-14; [12]): 7.77 ± 2.7 DSS
drug sensitivity score (UT-SCC-14; [13]): 7.63 ± 2.4 DSS
drug sensitivity score (UT-SCC-24B; [9]): 1.17 ± 1.5 DSS
drug sensitivity score (UT-SCC-24B; [10]): 5.5 ± 2.1 DSS
drug sensitivity score (UT-SCC-24B; [11]): 1.93 ± 1.7 DSS
drug sensitivity score (UT-SCC-24B; [12]): 4.07 ± 1.6 DSS
drug sensitivity score (UT-SCC-24B; [13]): 2.43 ± 1.4 DSS
drug sensitivity score (UT-SCC-28 [2]; [9]): 3.57 ± 1.1 DSS
drug sensitivity score (UT-SCC-28 [2]; [10]): 3.37 ± 1.5 DSS
drug sensitivity score (UT-SCC-28 [2]; [11]): 2.63 ± 1.4 DSS
drug sensitivity score (UT-SCC-28 [2]; [13]): 4.63 ± 1.6 DSS
drug sensitivity score (UT-SCC-40; [9]): 3.83 ± 6 DSS
drug sensitivity score (UT-SCC-40; [10]): 3.13 ± 3.1 DSS
drug sensitivity score (UT-SCC-40; [11]): 2.1 ± 1.3 DSS
drug sensitivity score (UT-SCC-40; [12]): 1.8 ± 1.9 DSS
drug sensitivity score (UT-SCC-40; [13]): 1.73 ± 1.6 DSS
drug sensitivity score (UT-SCC-42A [3]; [9]): 0.933 ± 1.1 DSS
drug sensitivity score (UT-SCC-42A [3]; [10]): 3.87 ± 0.76 DSS
drug sensitivity score (UT-SCC-42A [3]; [11]): 2.6 ± 0.4 DSS
drug sensitivity score (UT-SCC-42A [3]; [12]): 3.27 ± 0.83 DSS
drug sensitivity score (UT-SCC-42A [3]; [13]): 2.07 ± 0.91 DSS
drug sensitivity score (UT-SCC-42B; [9]): 0 DSS
drug sensitivity score (UT-SCC-42B; [11]): 0.733 ± 0.67 DSS
drug sensitivity score (UT-SCC-42B; [12]): 0.433 ± 0.38 DSS
drug sensitivity score (UT-SCC-42B; [13]): 0.133 ± 0.12 DSS
drug sensitivity score (UT-SCC-44; [9]): 2.47 ± 3.5 DSS
drug sensitivity score (UT-SCC-44; [10]): 5.4 ± 0.36 DSS
drug sensitivity score (UT-SCC-44; [11]): 6.83 ± 1.1 DSS
drug sensitivity score (UT-SCC-44; [12]): 7.67 ± 0.12 DSS
drug sensitivity score (UT-SCC-44; [13]): 5.07 ± 2 DSS
drug sensitivity score (UT-SCC-73; [9]): 2.37 ± 1.2 DSS
drug sensitivity score (UT-SCC-73; [10]): 8.4 ± 7.2 DSS
drug sensitivity score (UT-SCC-73; [11]): 3.93 ± 1.3 DSS
drug sensitivity score (UT-SCC-73; [12]): 4.27 ± 1.7 DSS
drug sensitivity score (UT-SCC-73; [13]): 3.23 ± 0.51 DSS
drug sensitivity score (UT-SCC-81 [4]; [9]): 7.87 ± 6.4 DSS
drug sensitivity score (UT-SCC-81 [4]; [10]): 9.2 ± 0.62 DSS
drug sensitivity score (UT-SCC-81 [4]; [11]): 5 ± 0.76 DSS
drug sensitivity score (UT-SCC-81 [4]; [12]): 7.07 ± 1.8 DSS
drug sensitivity score (UT-SCC-81 [4]; [13]): 7.8 ± 0.44 DSS
drug sensitivity score (UT-SCC-8; [9]): 5.3 ± 2.3 DSS
drug sensitivity score (UT-SCC-8; [10]): 4.2 ± 6.5 DSS
drug sensitivity score (UT-SCC-8; [11]): 5.8 ± 6 DSS
drug sensitivity score (UT-SCC-8; [12]): 7.9 ± 6 DSS
drug sensitivity score (UT-SCC-8; [13]): 6.57 ± 3.2 DSS
